Measured values taken from patent US10370333B2 (Sanford Burnham Prebys Medical Discovery Institute, priority 2012, dated 2019).

These molecules were tested against TNAP (Homo sapiens (Human), UniProt P05186) (assay: TNAP (PPi) inhibition assay, pyrophosphate as substrate).
Type: biochemical
Summary of the method: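 Enzyme source was conditioned serum-free medium from COS-1 cells transiently expressing tagged human TNAP, dialyzed against TBS with MgCl2/ZnCl2. Activity on natural substrate PPi at pH 7.4 read as liberated phosphate (Biomol Green).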

SMILES | IC50 [nM]
COc1ccc(Br)cc1S(=O)(=O)Nc1cc(C(F)(F)F)n(C)n1 [Example V-13, 5-Bromo-2-methoxy-N-(1-methyl-5-trifluoromethyl-1H-pyrazol-3-yl)-benzenesulfonamide] | > 1000
COc1ccc(OC)c(S(=O)(=O)Nc2cc(C(F)(F)F)n(C)n2)c1 [Example V-14, 2,5-Dimethoxy-N-(1-methyl-5-trifluoromethyl-1H-pyrazol-3-yl)-benzenesulfonamide] | > 1000
COc1ccc(Br)cc1S(=O)(=O)Nc1nccs1 [Example V-15, 5-Bromo-2-methoxy-N-thiazol-2-yl-benzenesulfonamide] | > 1000
COc1ccc(OC)c(S(=O)(=O)Nc2nccs2)c1 [Example V-16, 2,5-Dimethoxy-N-thiazol-2-yl-benzenesulfonamide] | > 1000
COc1ccc(Br)cc1S(=O)(=O)Nc1nnc(C)s1 [Example V-17, 5-Bromo-2-methoxy-N-(5-methyl-[1,3,4]thiadiazol-2-yl)-benzenesulfonamide] | > 1000
COc1ccc(OC)c(S(=O)(=O)Nc2nnc(C)s2)c1 [Example V-18, 2,5-Dimethoxy-N-(5-methyl-[1,3,4]thiadiazol-2-yl)-benzenesulfonamide] | > 1000
COc1ccc(Br)cc1S(=O)(=O)Nc1nnc(C(F)(F)F)s1 [Example V-19, 5-Bromo-2-methoxy-N-(5-trifluoromethyl-[1,3,4]thiadiazol-2-yl)-benzenesulfonamide] | 100 to 1000
COc1ccc(OC)c(S(=O)(=O)Nc2nnc(C(F)(F)F)s2)c1 [Example V-20] | > 1000
COc1ccc(Br)cc1S(=O)(=O)Nc1nnc(C)o1 [Example V-21, 5-Bromo-2-methoxy-N-(5-methyl-[1,3,4]oxadiazol-2-yl)-benzenesulfonamide] | > 1000
COc1ccc(OC)c(S(=O)(=O)Nc2nnc(C)o2)c1 [Example V-22, 2,5-Dimethoxy-N-(5-methyl-[1,3,4]oxadiazol-2-yl)-benzenesulfonamide] | > 1000
COc1ccc(OC)c(S(=O)(=O)Nc2cnccn2)c1 [Example V-23, 2,5-Dimethoxy-N-pyrazin-2-yl-benzenesulfonamide] | > 1000
COc1ccc(Br)cc1S(=O)(=O)Nc1cccnn1 [Example V-24, 5-Bromo-2-methoxy-N-pyridazin-3-yl-benzenesulfonamide] | 100 to 1000
COc1ccc(OC)c(S(=O)(=O)Nc2cccnn2)c1 [Example V-25, 2,5-Dimethoxy-N-pyridazin-3-yl-benzenesulfonamide] | > 1000
COc1ccc(Br)cc1S(=O)(=O)Nc1ccnnc1 [Example V-26, 5-Bromo-2-methoxy-N-pyridazin-4-yl-benzenesulfonamide] | > 1000
COc1ccc(OC)c(S(=O)(=O)Nc2ccnnc2)c1 [Example V-27, 2,5-Dimethoxy-N-pyridazin-4-yl-benzenesulfonamide] | > 1000
COc1ccc(Br)cc1S(=O)(=O)Nc1ncccn1 [Example V-28, 5-Bromo-2-methoxy-N-pyrimidin-2-yl-benzenesulfonamide] | > 1000
COc1ccc(OC)c(S(=O)(=O)Nc2ncccn2)c1 [Example V-29, 2,5-Dimethoxy-N-pyrimidin-2-yl-benzenesulfonamide] | > 1000
COc1ncc(Br)cc1S(=O)(=O)Nc1cnc2ccccc2c1 [Example VI-1, 5-Bromo-2-methoxy-pyridine-3-sulfonic acid quinolin-3-ylamide] | < 100
CCN(c1cnc2ccccc2c1)S(=O)(=O)c1cc(Br)ccc1OC [Example VII-2, 5-Bromo-2-methoxy-N-ethyl-N-(quinolin-3-yl)benzenesulfonamide] | > 1000
CCCN(c1cnc2ccccc2c1)S(=O)(=O)c1cc(Br)ccc1OC [Example VII-3, 5-Bromo-2-methoxy-N-propyl-N-(quinolin-3-yl)benzenesulfonamide] | > 1000
COc1ccc(Br)cc1S(=O)(=O)N(c1cnc2ccccc2c1)C(C)C [Example VII-4, 5-Bromo-N-isopropyl-2-methoxy-N-(quinolin-3-yl)benzenesulfonamide] | > 1000
CCCCN(c1cnc2ccccc2c1)S(=O)(=O)c1cc(Br)ccc1OC [Example VII-5, 5-Bromo-N-butyl-2-methoxy-N-(quinolin-3-yl)benzenesulfonamide] | > 1000
COc1ccc(Br)cc1S(=O)(=O)N(Cc1ccccc1)c1cnc2ccccc2c1 [Example VII-6, 5-Bromo-N-benzyl-2-methoxy-N-(quinolin-3-yl)benzenesulfonamide] | > 1000
COCCN(c1cnc2ccccc2c1)S(=O)(=O)c1cc(Br)ccc1OC [Example VII-7, 5-Bromo-2-methoxy-N-(2-methoxyethyl)-N-(quinolin-3-yl)benzenesulfonamide] | > 1000
COc1ccc(Br)cc1S(=O)(=O)N(CCN(C)C)c1cnc2ccccc2c1 [Example VII-9, 5-Bromo-N-(2-(dimethylamino)ethyl)-2-methoxy-N-(quinolin-3-yl)benzenesulfonamide] | > 1000

SMILES | IC50 [nM]
C=CCN(c1cnc2ccccc2c1)S(=O)(=O)c1cc(Br)ccc1OC [Example VII-10, N-allyl-5-bromo-2-methoxy-N-(quinolin-3-yl)benzenesulfonamide] | > 1000
C#CCN(c1cnc2ccccc2c1)S(=O)(=O)c1cc(Br)ccc1OC [Example VII-11, 5-Bromo-2-methoxy-N-(prop-2-yn-1-yl)-N-(quinolin-3-yl)benzenesulfonamide] | > 1000
COc1ccc(OC)c(S(=O)(=O)N(C)c2cnc3ccccc3c2)c1 [Example VII-12, 2,5-Dimethoxy-N-methyl-N-(quinolin-3-yl)benzenesulfonamide] | > 1000
CCN(c1cnc2ccccc2c1)S(=O)(=O)c1cc(OC)ccc1OC [Example VII-13, 2,5-Dimethoxy-N-ethyl-N-(quinolin-3-yl)benzenesulfonamide] | > 1000
COc1ccc(OC)c(S(=O)(=O)N(c2cnc3ccccc3c2)C(C)C)c1 [Example VII-14, 2,5-Dimethoxy-N-isopropyl-N-(quinolin-3-yl)benzenesulfonamide] | > 1000
CCCCN(c1cnc2ccccc2c1)S(=O)(=O)c1cc(OC)ccc1OC [Example VII-15, 2,5-Dimethoxy-N-butyl-N-(quinolin-3-yl)benzenesulfonamide] | > 1000
COc1ccc(OC)c(S(=O)(=O)N(Cc2ccccc2)c2cnc3ccccc3c2)c1 [Example VII-16, 2,5-Dimethoxy-N-benzyl-N-(quinolin-3-yl)benzenesulfonamide] | > 1000
COCCN(c1cnc2ccccc2c1)S(=O)(=O)c1cc(OC)ccc1OC [Example VII-17, 2,5-Dimethoxy-N-(2-methoxyethyl)-N-(quinolin-3-yl)benzenesulfonamide] | > 1000
COCCCN(c1cnc2ccccc2c1)S(=O)(=O)c1cc(OC)ccc1OC [Example VII-18, 2,5-Dimethoxy-N-(3-methoxypropyl)-N-(quinolin-3-yl)benzenesulfonamide] | > 1000
COc1ccc(OC)c(S(=O)(=O)N(CCN(C)C)c2cnc3ccccc3c2)c1 [Example VII-19, N-(2-(Dimethylamino)ethyl)-2,5-dimethoxy-N-(quinolin-3-yl)benzenesulfonamide] | > 1000
C=CCN(c1cnc2ccccc2c1)S(=O)(=O)c1cc(OC)ccc1OC [Example VII-20, N-Allyl-2,5-dimethoxy-N-(quinolin-3-yl)benzenesulfonamide] | > 1000
C#CCN(c1cnc2ccccc2c1)S(=O)(=O)c1cc(OC)ccc1OC [Example VII-21, 2,5-Dimethoxy-N-(prop-2-yn-1-yl)-N-(quinolin-3-yl)benzenesulfonamide] | > 1000
COc1ccc(Br)cc1S(=O)(=O)Nc1ccc(N2CCOCC2)nc1 [Example VIII-1, 5-Bromo-2-methoxy-N-(6-morpholinopyridin-3-yl)benzenesulfonamide] | > 1000
COc1ccc(OC)c(S(=O)(=O)Nc2ccc(N3CCOCC3)nc2)c1 [Example VIII-2, 2,5-Dimethoxy-N-(6-morpholinopyridin-3-yl)benzenesulfonamide] | > 1000
COc1ccc(Br)cc1S(=O)(=O)Nc1ccc(N)nc1 [Example VIII-3, 5-Bromo-2-methoxy-N-(6-Amino-pyridin-3-yl)-benzenesulfonamide] | > 1000
COc1ccc(OC)c(S(=O)(=O)Nc2ccc(N)nc2)c1 [Example VIII-4, 2,5-Dimethoxy-N-(6-Amino-pyridin-3-yl)-benzenesulfonamide] | > 1000
CNc1ccc(NS(=O)(=O)c2cc(Br)ccc2OC)cn1 [Example VIII-5, 5-Bromo-2-methoxy-N-(6-methylamino-pyridin-3-yl)-benzenesulfonamide] | 100 to 1000
CNc1ccc(NS(=O)(=O)c2cc(OC)ccc2OC)cn1 [Example VIII-6, 2,5-Dimethoxy-N-(6-methylamino-pyridin-3-yl)-benzenesulfonamide] | > 1000
COc1ccc(Br)cc1S(=O)(=O)Nc1ccc(N(C)C)nc1 [Example VIII-7, 5-Bromo-N-(6-(dimethylamino)pyridin-3-yl)-2-methoxybenzenesulfonamide] | > 1000
COc1ccc(OC)c(S(=O)(=O)Nc2ccc(N(C)C)nc2)c1 [Example VIII-8, N-(6-(Dimethylamino)pyridin-3-yl)-2,5-dimethoxybenzenesulfonamide] | > 1000
CCN(CC)c1ccc(NS(=O)(=O)c2cc(Br)ccc2OC)cn1 [Example VIII-9, 5-Bromo-N-(6-(diethylamino)pyridin-3-yl)-2-methoxybenzenesulfonamide] | 100 to 1000
CCN(CC)c1ccc(NS(=O)(=O)c2cc(OC)ccc2OC)cn1 [Example VIII-10, N-(6-(Diethylamino)pyridin-3-yl)-2,5-dimethoxybenzenesulfonamide] | > 1000
COCCNc1ccc(NS(=O)(=O)c2cc(Br)ccc2OC)cn1 [Example VIII-11, 5-Bromo-2-methoxy-N-(6-((2-methoxyethyl)amino)pyridin-3-yl)benzenesulfonamide] | > 1000
COCCNc1ccc(NS(=O)(=O)c2cc(OC)ccc2OC)cn1 [Example VIII-12, 2,5-Dimethoxy-N-(6-((2-methoxyethyl)amino)pyridin-3-yl)benzenesulfonamide] | > 1000
